Source: patent US5008268A, “2-aminopyrimidinone derivatives” (Janssen Pharmaceutica N.V., priority 1989, dated 1991)

Assays:
Format in all cases: in vivo
[1] = test system: compound 48/80-induced gastric lesions; experiment: Protection of rats from compound 48/80-induced gastric lesions (antiserotoninergic); conditions: Rattus norvegicus, dose at which stomach distention and glandular-area lesions are completely absent in half of the rats
From the text: (§1) Int. Pharmacodyn. Ther. 251, 39-51 (1981).
The ED50 values of the tested compounds are listed in the second column of table 4. Said ED50 values are the doses in mg per kg bodyweight at which the distention of the stomach as well as lesions in the glandular area of the stomach are completely absent in half of the test rats.

peripheral serotonin = experiment: Combined apomorphine, tryptamine and norepinephrine test in rats: tryptamine-induced hyperaemia of the ears; conditions: Rattus norvegicus, dose protecting half of tested animals from peripheral serotonin-induced phenomena, in particular hyperaemia of the ears
From the text: as §1
Pharmacodyn, 227, 238-253 (1977). Said test provides an empirical evaluation of the relative specificity with which drugs may effect particular neurotransmitters centrally (CNS) as well as peripherally. […] The ED50 values of the tested compounds are listed in column 3 of table 4 and represent the dose in mg per kg bodyweight which protects half of the tested animals from peripheral serotonin-induced phenomena, in particular hyperaemia of the ears.

[2] = test system: compound 48/80-induced lethality; experiment: Protection of rats from compound 48/80-induced lethality (antihistaminic); conditions: Rattus norvegicus, dose protecting 50% of tested animals against compound 48/80-induced lethality
From the text: as §1
The ED50 values of the tested compounds of formula (I) are listed in the first column of table 4. Said ED50 values are the values in mg per kg bodyweight at which the tested compounds protect 50% of the tested animals against compound 48/80-induced lethality.

Cc1nc2n(C)ccn2c(=O)c1CCN1CCC(Nc2nc3ccccc3n2Cc2ccc(CO)o2)CC1 [Compound 68]
ED50 [1]: 0.04 mg/kg
ED50 (peripheral serotonin): 0.04 mg/kg

CNc1nc(C)c(CCN2CCC(Nc3nc4ccccc4n3Cc3ccc(CO)o3)CC2)c(=O)n1C [Compound 17, 5-[2-[4-[[1-[[5-(hydroxymethyl)-2-furanyl]methyl]-1H-benzimidazol-2-yl]amino]-1-piperidinyl]ethyl]-3,6-dimethyl-2(methylamino)-4(3H)-pyrimidinone]
ED50 [2]: 0.02 mg/kg
ED50 [1]: 0.01 mg/kg
ED50 (peripheral serotonin): 0.002 mg/kg

Cc1nc2n(C)c(C)cn2c(=O)c1CCN1CCC(Nc2nc3ccccc3n2Cc2ccc(CO)o2)CC1 [Compound 71]
ED50 [1]: 0.04 mg/kg
ED50 (peripheral serotonin): 0.01 mg/kg

Cc1nc2n(C)ccn2c(=O)c1CCN1CCC(Cc2nc3ccccc3n2Cc2ccc(CO)o2)CC1 [Compound 79]
ED50 [1]: 0.04 mg/kg
ED50 (peripheral serotonin): 0.02 mg/kg

Cc1ccc(Cn2c(NC3CCN(CCc4c(C)nc5n(C)nc(C)n5c4=O)CC3)nc3cccnc32)o1 [Compound 67]
ED50 [2]: 0.04 mg/kg
ED50 [1]: 0.08 mg/kg
ED50 (peripheral serotonin): 0.08 mg/kg

Cc1nc(N)n(C)c(=O)c1CCN1CCC(Nc2nc3ccccc3n2Cc2ccc(CO)o2)CC1 [Compound 15, 2-amino-5-[2-[4-[[1-[[5-hydroxymethyl-2-furanyl]methyl]-1H-benzimidazol-2-yl]amino]-1-piperidinyl]ethyl]-3,6-dimethyl-4(3H)-pyrimidinone]
ED50 [2]: 0.02 mg/kg
ED50 [1]: 0.005 mg/kg
ED50 (peripheral serotonin): 0.002 mg/kg

CCCNc1nc(C)c(CCN2CCC(Nc3nc4ccccc4n3Cc3ccc(CO)o3)CC2)c(=O)n1C [Compound 43, 5-[2-[4-[[1-[[5-(hydroxymethyl)-2-furanyl]methyl]-1H-benzimidazol-2-yl]amino]-1-piperidinyl]ethyl]-3,6-dimethyl-2-(propylamino)-4(3H)-pyrimidinone]
ED50 [2]: 0.08 mg/kg
ED50 [1]: 0.04 mg/kg
ED50 (peripheral serotonin): 0.005 mg/kg

Cc1ccc(Cn2c(NC3CCN(CCc4c(C)nc(NCc5ccccc5)n(C)c4=O)CC3)nc3cccnc32)o1 [Compound 3]
ED50 [1]: 0.08 mg/kg
ED50 (peripheral serotonin): 0.005 mg/kg

Cc1nc(N)n(C)c(=O)c1CCN1CCC(Cc2nc3ccccc3n2Cc2ccc(F)cc2)CC1 [Compound 11, 2-amino-5-[2-[4-[[1-[(4-fluorophenyl)methyl]-1H-benzimidazol-2-yl]-methyl]-1-piperidinyl]ethyl]-3,6-dimethyl-4(3H)pyrimidinone]
ED50 [2]: 0.02 mg/kg
ED50 [1]: 0.16 mg/kg
ED50 (peripheral serotonin): 0.005 mg/kg

CCNc1nc(C)c(CCN2CCC(Nc3nc4ccccc4n3Cc3ccc(CO)o3)CC2)c(=O)n1C [Compound 29]
ED50 [2]: 0.08 mg/kg
ED50 [1]: 0.16 mg/kg
ED50 (peripheral serotonin): 0.005 mg/kg

CCOCCNc1nc(C)c(CCN2CCC(Nc3nc4ccccc4n3Cc3ccc(CO)o3)CC2)c(=O)n1C [Compound 30]
ED50 [2]: 0.04 mg/kg
ED50 [1]: 0.02 mg/kg
ED50 (peripheral serotonin): 0.02 mg/kg

Cc1nc2ccccn2c(=O)c1CCN1CCC(Nc2nc3cccnc3n2Cc2ccco2)CC1 [reference, 3-[2-[4-[[3-(2-furanylmethyl)-3H-imidazo[4,5-b]pyridin-2-yl]amino]-1-piperidinyl]ethyl]-2-methyl-4H-pyrido[1,2-a]pyrimidin-4-one, reference compound]
ED50 [2]: 0.08 mg/kg
ED50 [1]: 0.63 mg/kg
ED50 (peripheral serotonin): 0.63 mg/kg

CC1=NN(C)c2nc(C)c(CCN3CCC(Cc4nc5ccccc5n4Cc4ccc(F)cc4)CC3)c(=O)n2C1 [Compound 58]
ED50 [2]: 0.04 mg/kg
ED50 [1]: 0.16 mg/kg
ED50 (peripheral serotonin): 0.02 mg/kg

Cc1nc(NCc2ccccn2)n(C)c(=O)c1CCN1CCC(Cc2nc3ccccc3n2Cc2ccc(F)cc2)CC1 [Compound 21]
ED50 [2]: 0.04 mg/kg
ED50 [1]: 0.08 mg/kg
ED50 (peripheral serotonin): 0.01 mg/kg

CCCCNc1nc(C)c(CCN2CCC(Nc3nc4cccnc4n3Cc3ccc(C)o3)CC2)c(=O)n1C [Compound 34]
ED50 [2]: 0.04 mg/kg
ED50 [1]: 0.08 mg/kg
ED50 (peripheral serotonin): 0.02 mg/kg

Cc1nc(N)n(C)c(=O)c1CCN1CCC(Nc2nc3ccccc3n2Cc2ccc(F)cc2)CC1 [Compound 7]
ED50 [1]: 0.02 mg/kg
ED50 (peripheral serotonin): 0.01 mg/kg

Cc1nc(N)n(C)c(=O)c1CCN1CCC(Nc2nc3cccnc3n2Cc2ccc(CO)o2)CC1 [Compound 16]
ED50 [2]: 0.01 mg/kg
ED50 [1]: 0.16 mg/kg
ED50 (peripheral serotonin): 0.005 mg/kg

Cc1nc(NCc2ccccn2)n(C)c(=O)c1CCN1CCC(Nc2nc3ccccc3n2Cc2ccc(CO)o2)CC1 [Compound 39]
ED50 [2]: 0.08 mg/kg
ED50 [1]: 0.04 mg/kg
ED50 (peripheral serotonin): 0.005 mg/kg

Cc1nc2n(C)c(C)cn2c(=O)c1CCN1CCC(Cc2nc3ccccc3n2Cc2ccc(F)cc2)CC1 [Compound 50]
ED50 [2]: 0.04 mg/kg
ED50 [1]: 0.16 mg/kg
ED50 (peripheral serotonin): 0.02 mg/kg
